Source: PubChem BioAssay AID1745844 (Carcinogenic Potency Database (CPDB), 2022)
Activity calls are given as the source filed them. How the calls were made is not given here.

Tested on: rodent lifetime carcinogenesis bioassay, tumor incidence TD50
Experiment: carcinogenic potency in animals, long-term in vivo studies, CPDB compilation (AID 1745844)
[1] = mouse, strain B6AKF1, females, oral dosing, site: any site (literature study), lesion: several types, types named in the paper, dosed 76 weeks, study length 76 weeks
[2] = mouse, strain B6AKF1, females, oral dosing, site: liver, lesion: hepatoma, dosed 76 weeks, study length 76 weeks
[3] = mouse, strain B6AKF1, males, oral dosing, site: any site (literature study), lesion: several types, types named in the paper, dosed 76 weeks, study length 76 weeks
[4] = mouse, strain B6AKF1, males, oral dosing, site: liver, lesion: hepatoma, dosed 76 weeks, study length 76 weeks
[5] = mouse, strain B6AKF1, males, oral dosing, site: lung, lesion: adenoma, dosed 76 weeks, study length 76 weeks
[6] = mouse, strain B6C3F1, females, oral dosing, site: liver, lesion: hepatoma, dosed 76 weeks, study length 76 weeks
[7] = mouse, strain B6C3F1, males, oral dosing, site: any site (literature study), lesion: several types, types named in the paper, dosed 76 weeks, study length 76 weeks
[8] = mouse, strain B6C3F1, males, oral dosing, site: liver, lesion: hepatoma, dosed 76 weeks, study length 76 weeks
[9] = mouse, strain B6C3F1, males, oral dosing, site: lung, lesion: adenoma, dosed 76 weeks, study length 76 weeks

O=P(O)(OCC(Br)CBr)OCC(Br)CBr (configuration not stated)
TD50 (rat, strain Wistar, females, in feed, site: esophagus, lesion: squamous-cell papilloma, dosed 78 weeks, study length 78 weeks): 107 mg/kg/day | TD50 (rat, strain Wistar, females, in feed, site: esophagus, lesion: squamous-cell papilloma, dosed 96 weeks, study length 101 weeks): 394 mg/kg/day | TD50 (rat, strain Wistar, females, in feed, site: forestomach, lesion: several types, types named in the paper, dosed 78 weeks, study length 78 weeks): 19.6 mg/kg/day | TD50 (rat, strain Wistar, females, in feed, site: forestomach, lesion: several types, types named in the paper, dosed 96 weeks, study length 101 weeks): 40 mg/kg/day | TD50 (rat, strain Wistar, females, in feed, site: forestomach, lesion: squamous-cell carcinoma, dosed 78 weeks, study length 78 weeks): 171 mg/kg/day | TD50 (rat, strain Wistar, females, in feed, site: forestomach, lesion: squamous-cell carcinoma, dosed 96 weeks, study length 101 weeks): 301 mg/kg/day | TD50 (rat, strain Wistar, females, in feed, site: forestomach, lesion: squamous-cell papilloma, dosed 52 weeks, study length 52 weeks): 47.6 mg/kg/day | TD50 (rat, strain Wistar, females, in feed, site: forestomach, lesion: squamous-cell papilloma, dosed 78 weeks, study length 78 weeks): 34.5 mg/kg/day | TD50 (rat, strain Wistar, females, in feed, site: forestomach, lesion: squamous-cell papilloma, dosed 96 weeks, study length 101 weeks): 60.3 mg/kg/day | TD50 (rat, strain Wistar, females, in feed, site: kidney, lesion: renal-cell adenoma, dosed 96 weeks, study length 101 weeks): 1250 mg/kg/day | TD50 (rat, strain Wistar, females, in feed, site: kidney, lesion: renal-cell carcinoma, dosed 96 weeks, study length 101 weeks): 1250 mg/kg/day | TD50 (rat, strain Wistar, females, in feed, site: kidney, lesion: several types, types named in the paper, dosed 96 weeks, study length 101 weeks): 608 mg/kg/day | TD50 (rat, strain Wistar, females, in feed, site: liver, lesion: hepatocellular adenoma, dosed 52 weeks, study length 52 weeks): 33.2 mg/kg/day | TD50 (rat, strain Wistar, females, in feed, site: liver, lesion: hepatocellular adenoma, dosed 78 weeks, study length 78 weeks): 20.6 mg/kg/day | TD50 (rat, strain Wistar, females, in feed, site: liver, lesion: hepatocellular carcinoma, dosed 52 weeks, study length 52 weeks): 35.1 mg/kg/day | TD50 (rat, strain Wistar, females, in feed, site: liver, lesion: hepatocellular carcinoma, dosed 78 weeks, study length 78 weeks): 20.1 mg/kg/day | TD50 (rat, strain Wistar, females, in feed, site: liver, lesion: hepatocellular carcinoma, dosed 96 weeks, study length 101 weeks): 37.1 mg/kg/day | TD50 (rat, strain Wistar, females, in feed, site: liver, lesion: several types, types named in the paper, dosed 52 weeks, study length 52 weeks): 11.8 mg/kg/day | TD50 (rat, strain Wistar, females, in feed, site: liver, lesion: several types, types named in the paper, dosed 78 weeks, study length 78 weeks): 11.9 mg/kg/day | TD50 (rat, strain Wistar, females, in feed, site: liver, lesion: several types, types named in the paper, dosed 96 weeks, study length 101 weeks): 27.8 mg/kg/day | TD50 (rat, strain Wistar, females, in feed, site: small intestine, lesion: adenocarcinoma, dosed 78 weeks, study length 78 weeks): 107 mg/kg/day | TD50 (rat, strain Wistar, females, in feed, site: small intestine, lesion: adenocarcinoma, dosed 96 weeks, study length 101 weeks): 179 mg/kg/day | TD50 (rat, strain Wistar, females, in feed, site: tongue, lesion: several types, types named in the paper, dosed 96 weeks, study length 101 weeks): 301 mg/kg/day | TD50 (rat, strain Wistar, females, in feed, site: tongue, lesion: squamous-cell papilloma, dosed 78 weeks, study length 78 weeks): 107 mg/kg/day | TD50 (rat, strain Wistar, females, in feed, site: tongue, lesion: squamous-cell papilloma, dosed 96 weeks, study length 101 weeks): 403 mg/kg/day | TD50 (rat, strain Wistar, males, in feed, site: esophagus, lesion: several types, types named in the paper, dosed 90 weeks, study length 102 weeks): 45.1 mg/kg/day | TD50 (rat, strain Wistar, males, in feed, site: esophagus, lesion: squamous-cell papilloma, dosed 78 weeks, study length 78 weeks): 16.5 mg/kg/day | TD50 (rat, strain Wistar, males, in feed, site: esophagus, lesion: squamous-cell papilloma, dosed 90 weeks, study length 102 weeks): 62.1 mg/kg/day | TD50 (rat, strain Wistar, males, in feed, site: forestomach, lesion: several types, types named in the paper, dosed 52 weeks, study length 52 weeks): 38.1 mg/kg/day | TD50 (rat, strain Wistar, males, in feed, site: forestomach, lesion: several types, types named in the paper, dosed 90 weeks, study length 102 weeks): 37.8 mg/kg/day | TD50 (rat, strain Wistar, males, in feed, site: forestomach, lesion: squamous-cell carcinoma, dosed 52 weeks, study length 52 weeks): 129 mg/kg/day | TD50 (rat, strain Wistar, males, in feed, site: forestomach, lesion: squamous-cell carcinoma, dosed 90 weeks, study length 102 weeks): 979 mg/kg/day | TD50 (rat, strain Wistar, males, in feed, site: forestomach, lesion: squamous-cell papilloma, dosed 52 weeks, study length 52 weeks): 60.9 mg/kg/day | TD50 (rat, strain Wistar, males, in feed, site: forestomach, lesion: squamous-cell papilloma, dosed 78 weeks, study length 78 weeks): 56.1 mg/kg/day | TD50 (rat, strain Wistar, males, in feed, site: forestomach, lesion: squamous-cell papilloma, dosed 90 weeks, study length 102 weeks): 43.5 mg/kg/day | TD50 (rat, strain Wistar, males, in feed, site: kidney, lesion: renal-cell adenoma, dosed 78 weeks, study length 78 weeks): 56.1 mg/kg/day | TD50 (rat, strain Wistar, males, in feed, site: kidney, lesion: renal-cell adenoma, dosed 90 weeks, study length 102 weeks): 45.1 mg/kg/day | TD50 (rat, strain Wistar, males, in feed, site: kidney, lesion: renal-cell carcinoma, dosed 52 weeks, study length 52 weeks): 129 mg/kg/day | TD50 (rat, strain Wistar, males, in feed, site: kidney, lesion: several types, types named in the paper, dosed 90 weeks, study length 102 weeks): 35 mg/kg/day | TD50 (rat, strain Wistar, males, in feed, site: liver, lesion: hepatocellular adenoma, dosed 78 weeks, study length 78 weeks): 28.3 mg/kg/day | TD50 (rat, strain Wistar, males, in feed, site: liver, lesion: hepatocellular carcinoma, dosed 52 weeks, study length 52 weeks): 129 mg/kg/day | TD50 (rat, strain Wistar, males, in feed, site: liver, lesion: several types, types named in the paper, dosed 52 weeks, study length 52 weeks): 129 mg/kg/day | TD50 (rat, strain Wistar, males, in feed, site: small intestine, lesion: adenocarcinoma, dosed 52 weeks, study length 52 weeks): 60.9 mg/kg/day | TD50 (rat, strain Wistar, males, in feed, site: small intestine, lesion: adenocarcinoma, dosed 90 weeks, study length 102 weeks): 79 mg/kg/day | TD50 (rat, strain Wistar, males, in feed, site: small intestine, lesion: adenoma, dosed 52 weeks, study length 52 weeks): 129 mg/kg/day | TD50 (rat, strain Wistar, males, in feed, site: small intestine, lesion: several types, types named in the paper, dosed 52 weeks, study length 52 weeks): 38.1 mg/kg/day | TD50 (rat, strain Wistar, males, in feed, site: tongue, lesion: squamous-cell carcinoma, dosed 78 weeks, study length 78 weeks): 56.1 mg/kg/day

O=S(=O)(Oc1ccc(Cl)cc1Cl)c1ccccc1
TD50 [1]: 867 mg/kg/day (inactive) | carcinogen call [2]: negative (inactive) | TD50 (mouse, strain B6AKF1, females, oral dosing, site: lung, lesion: several types, types named in the paper, dosed 76 weeks, study length 76 weeks): 1920 mg/kg/day (inactive) | TD50 [3]: 1680 mg/kg/day (inactive) | carcinogen call [4]: negative (inactive) | TD50 [5]: 866 mg/kg/day (inactive) | TD50 (mouse, strain B6C3F1, females, oral dosing, site: any site (literature study), lesion: several types, types named in the paper, dosed 76 weeks, study length 76 weeks): 929 mg/kg/day (inactive) | carcinogen call [6]: negative (inactive) | TD50 (mouse, strain B6C3F1, females, oral dosing, site: lung, lesion: adenoma, dosed 76 weeks, study length 76 weeks): 1920 mg/kg/day (inactive) | TD50 [7]: 218 mg/kg/day (inactive) | TD50 [8]: 266 mg/kg/day (inactive) | TD50 [9]: 924 mg/kg/day (inactive)

O=NN(CC(F)(F)F)CC(F)(F)F
TD50 (rat, strain Fischer 344, females, in drinking water, site: liver, lesion: malignant tumor, dosed 30 weeks, study length 130 weeks): 4.98 mg/kg/day (inactive) | carcinogen call (rat, strain Sprague-Dawley, males, in drinking water, site: several sites, sites named in the paper, lesion: malignant tumor, dosed 30 weeks, study length 114 weeks): negative (inactive)

CN(CCCC(O)c1cccnc1)N=O (configuration not stated)
TD50 (rat, strain Fischer 344, males, in drinking water, site: adrenal medulla, lesion: one or several types, types not named, dosed 112 weeks, study length 112 weeks): 1.39 mg/kg/day | TD50 (rat, strain Fischer 344, males, in drinking water, site: liver, lesion: hepatoma, dosed 112 weeks, study length 112 weeks): 5.86 mg/kg/day | TD50 (rat, strain Fischer 344, males, in drinking water, site: liver, lesion: several types, types named in the paper, dosed 112 weeks, study length 112 weeks): 7.25 mg/kg/day | TD50 (rat, strain Fischer 344, males, in drinking water, site: lung, lesion: adenocarcinoma, dosed 112 weeks, study length 112 weeks): 0.409 mg/kg/day | TD50 (rat, strain Fischer 344, males, in drinking water, site: lung, lesion: adenoma, dosed 112 weeks, study length 112 weeks): 1.38 mg/kg/day | TD50 (rat, strain Fischer 344, males, in drinking water, site: lung, lesion: adenosquamous carcinoma, dosed 112 weeks, study length 112 weeks): 0.577 mg/kg/day | TD50 (rat, strain Fischer 344, males, in drinking water, site: lung, lesion: several types, types named in the paper, dosed 112 weeks, study length 112 weeks): 0.103 mg/kg/day | TD50 (rat, strain Fischer 344, males, in drinking water, site: pancreas, exocrine, lesion: acinar-cell adenoma, dosed 112 weeks, study length 112 weeks): 2.14 mg/kg/day | TD50 (rat, strain Fischer 344, males, in drinking water, site: pancreas, exocrine, lesion: adenocarcinoma, acinar or ductal, dosed 112 weeks, study length 112 weeks): 1.09 mg/kg/day | TD50 (rat, strain Fischer 344, males, in drinking water, site: pancreas, exocrine, lesion: several types, types named in the paper, dosed 112 weeks, study length 112 weeks): 0.668 mg/kg/day

CC(O)C(=O)O (configuration not stated)
TD50 (rat, strain F344/DuCrj, females, in drinking water, site: any site (literature study), lesion: one or several types, types not named, dosed 104 weeks, study length 113 weeks): 103000 mg/kg/day | TD50 (rat, strain F344/DuCrj, males, in drinking water, site: liver, lesion: hepatocellular adenoma, dosed 104 weeks, study length 113 weeks): 54500 mg/kg/day

CCOP(=O)(CC1CO1)OCC (configuration not stated)
TD50 (mouse, strain Ha/ICR, females, i.p., site: lung, lesion: papillary tumor, dosed 64 weeks, study length 64 weeks): 12.4 mg/kg/day

S=C([S-])NCCNC(=S)[S-].[Mn+2]
TD50 [1]: 138 mg/kg/day (inactive) | carcinogen call [2]: negative (inactive) | carcinogen call (mouse, strain B6AKF1, females, oral dosing, site: lung, lesion: adenoma, dosed 76 weeks, study length 76 weeks): negative (inactive) | TD50 [3]: 106 mg/kg/day (inactive) | carcinogen call [4]: negative (inactive) | TD50 [5]: 54.9 mg/kg/day (inactive) | carcinogen call (mouse, strain B6C3F1, females, oral dosing, site: any site (literature study), lesion: one or several types, types not named, dosed 76 weeks, study length 76 weeks): negative (inactive) | carcinogen call [6]: negative (inactive) | carcinogen call (mouse, strain B6C3F1, females, oral dosing, site: lung, lesion: several types, types named in the paper, dosed 76 weeks, study length 76 weeks): negative (inactive) | TD50 [7]: 62.3 mg/kg/day (inactive) | TD50 [8]: 128 mg/kg/day (inactive) | TD50 [9]: 128 mg/kg/day (inactive) | TD50 (rat, strain Mongrel, both sexes, by gavage, site: any site (literature study), lesion: several types, types named in the paper, dosed 95 weeks, study length 104 weeks): 157 mg/kg/day
